Assays:
Plasmodium falciparum [1] = assay: NOVARTIS: Inhibition of Plasmodium falciparum 3D7 (drug-susceptible) proliferation in erythrocyte-based infection assay; type: functional, organism-based; details: Plasmodium falciparum, 3D7
Plasmodium falciparum [2] = assay: NOVARTIS: Inhibition of Plasmodium falciparum W2 (drug-resistant) proliferation in erythrocyte-based infection assay; type: functional, organism-based; details: Plasmodium falciparum, W2; read-out: EC50
[3] = NOVARTIS: Cytotoxicity against human hepatocellular carcinoma cell line (Huh7); type: toxicity, cell-based, Huh-7; details: Huh7 cells (hepatocellular carcinoma cell line)

Compound | EC50 (Plasmodium falciparum [1]) [nM] | EC50 (Plasmodium falciparum [2]) [nM] | CC50 [3] [nM]
Cc1cc(Nc2ccc(O)cc2)nc2cccc(O)c12 | 468 | 407 | 52400
CC(Nc1cc(C)ccn1)=C(C#N)C#N | 549 | 795 | > 100000
CNC(=O)c1ccc(NC(=O)Nc2ccc(C3=NCCCN3)cc2)cc1NC(=O)Nc1ccc(C2=NCCCN2)cc1 | 126 | 78.3 | > 10000
Cc1cc(N2CCCCC2)nc2ccc(NC(=O)c3cccc([N+](=O)[O-])c3)cc12 | 440 | 793 | > 100000
Cc1cc(Cl)ccc1OC(C)C(=O)N1CCc2ccccc21 (configuration not stated) | 632 | 812 | > 100000
CCN(CC)S(=O)(=O)c1ccc2[nH]cc(C(=O)NCCCN3CCN(c4ccc(OC)cc4)CC3)c(=O)c2c1 | 2340 | 420 | 51600
CCOC(=O)c1cc(-c2ccc(OC)cc2)n(CCC(=O)NCc2ccc(OC)cc2)c1C | 987 | 781 | > 100000
Nc1c(C(=O)Nc2ccc(Br)cc2)sc2nc3c(c(-c4cccs4)c12)CCC3 | 1040 | 776 | > 100000
COc1ccc(-c2cc(-c3ccc(C)cc3)[nH]n2)c(O)c1 | 1520 | 198 | 25600
CC(NCc1cc(-c2ccccc2)ccc1O)c1cccc2ccccc12 (configuration not stated) | 1210 | 77.3 | > 10000
COc1ccc(NC2=C(c3ccc(C(F)(F)F)cc3)C(=O)c3ccccc32)cc1 | 339 | 772 | > 100000
CCOC(=O)C1=C(C)NC(=Cc2cc(C)n(-c3cccc(Br)c3)c2C)C1=O | 2880 | 805 | > 100000
CCCCN(CC)CCNC(=O)c1cc2c(-c3ccc(Cl)cc3)nn(C)c2s1 | 89.8 | 320 | 39800
O=C(c1ccc(F)cc1Cl)N1CCN(c2nc(-c3cccs3)ns2)CC1 | 351 | 78.9 | > 10000
OC(CN1CCN(CC=Cc2ccccc2)CC1)Cn1c2ccc(Br)cc2c2cc(Br)ccc21 (configuration not stated) | 1960 | 426 | > 54100
COc1cc2nc(NCc3ccccc3)n3nc(-c4cccnc4)nc3c2cc1OC | > 12500 | 810 | > 100000
COC(=O)[C@@H]1C[C@H](NC(=O)c2ccc(OC)cc2OC)CN1Cc1cccc2ccccc12 | > 1250 | > 80.9 | > 10000
O=C(NNC(=O)c1csnn1)c1ccc(C(F)(F)F)cc1 | 641 | 792 | > 100000
CC(=O)c1ccc2c3c(onc13)-c1ccccc1C2=O | 2250 | 791 | > 100000
COc1ccc2cc(C)c3nnc(SCC(=O)N4CCN(C(=O)c5ccco5)CC4)n3c2c1 | 1130 | 796 | > 100000
CCN(CC)CCCN(Cc1cc2ccc(C)cc2[nH]c1=O)C(=S)Nc1cccc(Cl)c1 | 700 | 176 | 22100
CCOC(=O)CCC(=O)Oc1ccccc1-c1nc2cc(C)ccn2c1NC(C)(C)CC(C)(C)C | 658 | 79.5 | > 10000
CC(C)NCC(O)Cn1c2ccc(Cl)cc2c2cc(Cl)ccc21 (configuration not stated) | 183 | 38.9 | 4870
Cc1cc(Nc2ccc(C)c(C)c2)n2cnnc2n1 | 242 | 590 | > 73900
CCOC(=O)C1CCCN(C(=O)c2c(C)oc3c2C(=O)c2ccccc2C3=O)C1 (configuration not stated) | 171 | 163 | 20400
O=c1c([N+](=O)[O-])cccn1Cc1ccc(F)cc1Cl | 358 | 783 | > 100000
CCCCCCC(=O)Oc1ccccc1-c1nc2ccccn2c1NC(C)(C)CC(C)(C)C | 1060 | 78.3 | > 10000

Compound | EC50 (Plasmodium falciparum [1]) [nM] | EC50 (Plasmodium falciparum [2]) [nM] | CC50 [3] [nM]
COc1cccc(-c2cncc(-c3cncc(OC)c3)n2)c1 | 701 | 803 | > 100000
CCCCCCC(=O)Oc1ccccc1-c1nc2cc(C)ccn2c1NC(C)(C)CC(C)(C)C | 636 | 80.3 | > 10000
O=C(NC1CCN(CC(O)CN(Cc2ccccc2)S(=O)(=O)c2ccccc2)C1)c1ccccc1 (configuration not stated) | 81.9 | 56.9 | > 7270
CCNc1nc(NC(C)(C)C)nc(N2CCCC2)n1 | 1450 | 802 | > 100000
COc1ccc(-n2c(CNc3cc(C(F)(F)F)ccc3Cl)nnc2SCc2ccccc2Cl)cc1 | 728 | 801 | > 100000
O=C(Nc1cccc(-c2nc3ccccc3[nH]2)c1)c1cc(=O)c2ccccc2o1 | 397 | 786 | > 100000
CC(=O)N(C1=C(N(C)C)C(=O)c2ccccc2C1=O)c1cccc(F)c1 | 13.5 | 10.6 | 1360
COc1nncc(-c2cnnc(SC)n2)n1 | 237 | 219 | 28400
Cc1ccc(NC(=O)ON=C2CCCC2)cc1 | 408 | 362 | 45700
CCOC(=O)c1cnc2c(Cl)cccc2c1Nc1cccc(C(C)=O)c1 | 785 | 784 | > 100000
COc1ccc(O)c(C=NNc2nc3ccccc3[nH]2)c1 | 576 | 355 | 43900
CCc1ccc(-n2nnc(C(=O)Nc3ccccc3Cl)c2C)cc1 | > 1680 | 77.5 | > 10000
COc1ccc2c(c1)CC1c3c(cc4c(c3-2)OCO4)CCN1C (configuration not stated) | 38.5 | 121 | 15600
COc1ccc2cc(CNCCc3cccc(Cl)c3)c(N3CCC(=O)N(CCN(C)C)CC3)nc2c1 | > 1250 | 77.2 | > 10000
CCOC(=O)C1=C(C)N=c2sc(=Cc3cc(Br)ccc3O)c(=O)n2C1c1ccc(OC)c(OC)c1 (configuration not stated) | 2100 | 814 | > 100000
COc1ccccc1-n1c(C(C)N2CCN(C(=O)c3cc([N+](=O)[O-])cc([N+](=O)[O-])c3)C(C)C2)nc2ccccc2c1=O (configuration not stated) | > 603 | 79.6 | > 10000
COc1ccc(OC)c(-c2ccc(O)c(CNCCc3ccccc3)c2)c1 | 657 | 77.1 | > 10000
COc1ccc(OC)c(NC(=O)COc2cc3ccccc3cc2C(=O)Nc2cc(OC)c(Cl)cc2OC)c1 | 1150 | 782 | > 100000
COC(=O)[C@@H]1C[C@H](NC(=O)c2[nH]c3ccc(Cl)cc3c2-c2ccccc2)CN1Cc1cc(OC)cc(OC)c1 | > 11500 | 786 | > 100000
COc1ccc(C2N(Cc3ccccc3)c3ccccc3N2Cc2ccccc2)cc1 | 561 | 431 | 53000
Cc1ccc(NC2=C(c3ccc(C(F)(F)F)cc3)C(=O)c3ccccc32)cc1F | 541 | 790 | > 100000
CCn1c(SCc2ccc([N+](=O)[O-])cc2)nc2sc3c(c2c1=O)CCN(C)C3 | 470 | 808 | > 100000
Cc1ccc2ccc(C(Nc3ccccn3)c3ccc(Br)cc3)c(O)c2n1 (configuration not stated) | 1220 | 800 | > 100000
Cc1c2cnn(CC(=O)O)c(=O)c2c(C)n1Cc1cccc(Cl)c1 | > 12500 | 789 | > 100000
N=c1c2c(n(Cc3ccccc3)c3c1CCC3)CCC2 | 280 | 329 | 41200
Clc1nc(Nc2ccccc2)nc(N2CCCCC2)n1 | > 12500 | 381 | 48300
Cc1ccc(C=NNc2ncnc3nc[nH]c23)cc1 | 697 | 804 | > 100000

Source: ChEMBL document CHEMBL1156829 (Proc Natl Acad Sci U S A, 2008)
